Experiment in all cases: NCI anticancer screen, dose series, 48 h
Assay [1] has as its system A549 NSCLC.
Assay [2] concerns CAKI-1 renal.
For assay [3], the system named is CCRF-CEM leukemia.
Assay [4] concerns M14 melanoma.
The test system of assay [5] is RXF 393 renal.
In assay [6] the test system is SK-MEL-2 melanoma.
Assay [7] concerns SK-MEL-28 melanoma.
For assay [8], the system named is SK-MEL-5 melanoma.
The test system of assay [9] is MDA-MB-435.
The test system of assay [10] is T-47D breast.

This is an account of results in PubChem BioAssay (NCI).

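Grown in 96-well plates, cells were treated for 48 hours with each compound at five concentrations. Insufficient inhibition: endpoint recorded as highest concentration tested. GI50: concentration for 50% inhibition of growth. Definition used: TGI = concentration required for complete inhibition of growth.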

With `N=C(N)c1csc([C@@H]2O[C@H](CO)[C@@H](O)[C@H]2O)n1`, the TGI in assay [1], in assay [2], in assay [3], in assay [4], in [5] and in assay [6] was above 100 µM in each case. Also, the TGI in [7] and in assay [8] was above 100 µM throughout.

With `c1cn2cc(-c3ccc4ncn(C5CCCCC5)c4c3)nc(-c3ccc4c(c3)ncn4C3CCCCC3)c2n1`, the GI50 is 1.94 µM in [1]; 1.46 µM in assay [2]; 1.69 µM in assay [3]; 1.77 µM in assay [9]; 1.51 µM in [5]; 1.74 µM in assay [6]. For the same molecule, the figures for the GI50 in assay [7], in [8] and in assay [10] were 1.81 µM, 1.49 µM and 1.9 µM, respectively. Moreover, the TGI in [1] came to 3.54 µM; in assay [2], 2.95 µM; in assay [3], 6.08 µM; in assay [9], 3.54 µM; in assay [5] it was 3 µM; in assay [6] it was 3.35 µM. Moreover, the figures for the TGI in [7], in [8] and in assay [10] were 3.41 µM, 2.83 µM and 4.69 µM, respectively.

Regarding `CCC(=O)NC(Nc1ccc(O)cc1)(C(F)(F)F)C(F)(F)F`, the TGI was above 100 µM in assay [3]; above 100 µM in assay [4]; 65.7 µM in assay [9]; above 100 µM in [5]; above 100 µM in [6]; above 100 µM in assay [7]. In assay [10], this molecule returned a TGI above 100 µM.

Regarding `Nc1ccc2c3c(n(CCCCl)c(=O)c2c1)-c1cc2c(cc1C3=O)OCO2`, the GI50 was 7.75 µM in assay [1]; 1.03 µM in [2]; above 100 µM in [3]; above 100 µM in assay [9]; 55.1 µM in assay [5]; above 100 µM in assay [6]. Further, the GI50 was above 100 µM in [7], 0.12 µM in assay [8] and above 100 µM in assay [10]. Further, the TGI in assay [1], in assay [2], in assay [3], in assay [9], in assay [5] and in assay [6] was above 100 µM throughout. In addition, the values for the TGI in assay [7], in assay [8] and in assay [10] were above 100 µM, 0.714 µM and above 100 µM, respectively.

As for `CC(C)(C)[Si](C)(C)OCC1CCC(n2cnc3c(N)ncnc32)O1` (stereo unspecified), the TGI in assay [2] is above 100 µM; in assay [3], above 100 µM; in assay [4], above 100 µM; in assay [9], 85.2 µM; in assay [5], above 100 µM; in assay [6], above 100 µM. The TGI in assay [7] is above 100 µM; in assay [8], 34.4 µM; in assay [10] it was above 100 µM.

In the case of `NC(CCP(=O)(O)CCC1C=CC=CC1)C(=O)O` (stereo unspecified), the TGI in [1], in assay [2], in assay [3], in assay [4], in assay [9] and in assay [5] was above 100 µM throughout. Moreover, the TGI in [6], in [7], in [8] and in assay [10] was above 100 µM each time.

As for `COC(=O)c1ccc(N=NN(C)COc2ccc([N+](=O)[O-])cc2)cc1`, the TGI in assay [1], in [2], in assay [3], in [5], in [6] and in assay [7] was above 100 µM throughout. Also, in assay [8], the TGI was above 100 µM.

In the case of `COc1cc(C2=C(C#N)C(N)OC3=C2COc2ccccc23)cc(OC)c1OC` (stereo unspecified), the TGI in assay [1] was 49.3 µM; in [3], above 100 µM; in [4] it was above 100 µM; in [9], above 100 µM; in assay [6], above 100 µM; in assay [7], above 100 µM. This molecule also returned a TGI in assay [8] above 100 µM.

Consider `NNc1nc2ccccc2s1`, for which the TGI in assay [1], in assay [2], in assay [3], in assay [4], in assay [9] and in assay [5] was above 100 µM throughout. Also, the TGI in assay [6], in assay [7], in assay [8] and in assay [10] was above 100 µM in each case.

In the case of `O=C(O)C1Cc2c([nH]c3ccccc23)C=N1` (stereo unspecified), the TGI in [1], in assay [2], in [3], in [5], in [6] and in assay [7] was above 100 µM each time. Also, the TGI in [8] was above 100 µM.
